From US20160338967A1, “SUSTAINED RELEASE DEPOT FORMULATIONS OF T[…], AND USES THEREOF” (Kineta One, LLC, priority 2013, published 2016)

Experiments:
[1] = In vivo release of ShK-192 formulated with PLG2A, blood ELISA (Example 5); set-up: species or system Sprague-Dawley rats; conditions: PLG2A depot formulation, 10,000 μg/kg, single SC injection, n=3 (FIG. 7)
Description: The next part of this Example was performed to test formulation and in vivo release of ShK-192 over extended time durations. Similar to the methods used for ShK-186, 1.0 g of PLG2A was dissolved into 5.0 mL dichloromethane with mechanical stirring until the polymer was completely dissolved. A volume of 500 μL including a low dose of ShK-192 (10 mg/mL final concentration; in a 20 mM sodium phosphate aqueous buffer (pH 6.0) with 140 mM NaCl) was formulated by homogenizing for 2 minutes with a 10×195 mm probe (26,000 rpm). The w/o emulsion was then transferred into a 100 mL Pyrex® 1395 media bottle charged with 20 mL of 0.5% w/w DSS, 20 mM phosphate (pH 7.0), water solution.
The mixture was held in thermal contact with ice water (0° C.) and homogenized for 5 minutes at 26,000 rpm, with the final pH of the aqueous (external) phase verified and adjusted to 5.0<pH<7.5. The formulation was then removed from homogenization and mechanically stirred overnight at room temperature in a fume hood to permit solvent evaporation. The next day the suspension was first filtered through a 325 mesh screen, then stored at room temperature with end over end mixing to minimize settling/clumping. Immediately before in vivo use, the formulations were centrifuged utilizing the appropriate volume for 8 minutes, at 4° C. at 2,000 g. […]

[2] = tested on: delayed type hypersensitivity rat model; test: Delayed type hypersensitivity rat model (ear induration); format: in vivo, Lewis rats; conditions: single injection of PLG depot formulation on day 0, 1,000-40,000 μg/kg; versus daily SC injection in buffer P6N
Description: Therapeutic efficacy of ShK-186 and ShK-192 depot formulations in animal models of autoimmune disease including the delayed type hypersensitivity rat model. Lewis rats are vaccinated by SC administration to the base of the tail with 100 μg ovalbumin mixed 1:1 (v/v) in Complete Freund's Adjuvant (CFA) (OVA/CFA, 200 μL volume) on day 0 using a 20 G×1% needle. Delayed-type hypersensitivity (DTH) is elicited in the ear on Day 7 by injection of 20 μg OVA in 10 μL to the pinna of the ear of isoflurane-anesthetized animals using 29 G×1 needles. DTH is evaluated on Days 8 and 9 by measuring the induration of the site of antigen injection with a micrometer (caliper). Control treatments with ShK-186 or ShK-192 include SC injections of ShK-186 or ShK-192 at 100 μg/kg, 10 μg/kg, 3 μg/kg or 1 μg/kg given on day 0-7 (daily from the initial immunization). The control treatments are compared to a single injection of a depot formulation of ShK-186 or ShK-192 using a PLG polymer-based (in one example, PLG2A) sustained formulations at a dose of 1,000 μg/kg, 5,000 μg/kg, 10,000 μg/kg, 20,000 μg/kg, or 40,000 μg/kg given on day 0 (time of immunization).

[3] = tested on: chronic relapsing/remitting autoimmune encephalomyelitis rat model; test: Chronic relapsing/remitting autoimmune encephalomyelitis rat model (clinical scoring); format: in vivo, dark agouti rats; conditions: single injection of PLG2A depot formulation, 1,000-40,000 μg/kg; prevention and treatment models
Description: Therapeutic efficacy of ShK-186 and ShK-192 depot formulations in animal models of autoimmune disease including the chronic relapsing/remitting autoimmune encephalomyelitis rat model. Chronic relapsing/remitting autoimmune encephalomyelitis (CR-EAE) is induced by SC injection of spinal cord homogenate (Bioreclamation, Inc.) and CFA to dark agouti rats (Harlan). Animals typically recover by 30 days after onset of CR-EAE. Rats are treated with different amounts of ShK-186 or ShK-192 (1, 3, 5, 10, and 100 μg/kg) in SC injections daily, every two days, or every three days at different time points prior to and after elicitation of CR-EAE by immunization. These regimens are compared to single injection of depot formulations (ShK-186 or ShK-192 with PLG2A) at doses of 1,000 μg/kg, 5,000 μg/kg, 10,000 μg/kg, 20,000 μg/kg, or 40,000 μg/kg given at the beginning of the experiment (time immunization, prevention model) and after onset of disease, i.e., after a rat has a clinical score of 1 or greater (treatment model).
The efficacy of the treatments is measured by clinical scoring of the severity of CR-EAE in daily and depot formulation-treated rats. […] Subsets of rats are sacrificed at specific time points of the experiment to harvest tissues or to collect whole blood samples.

[4] = In vivo dose response/release of ShK-186 formulated with PLG2A, blood ELISA (Example 5); set-up: species or system Sprague Dawley rats
Description: In vivo dose response of depot formulations using ShK-186 and ShK-192 with PLG2A. Preparation of depot formulations was performed as follows: 1.0 g of PLG2A was dissolved into 5.0 mL dichloromethane with mechanical stirring until the polymer was completely dissolved. A volume of 500 μL including three levels of ShK-186 (40, 20, and 10 mg/mL final concentration; in a 20 mM sodium phosphate aqueous buffer (pH 6.0) with 140 mM NaCl) was added separately into three separate PLG2A preparations and homogenized for 2 minutes with a 10×195 mm probe (26,000 rpm). The w/o emulsion was then poured into a 100 mL Pyrex® 1395 media bottle charged with 20 mL of 0.5% w/w DSS, and 20 mM phosphate (pH 7.0) water solution. The mixture was homogenized for 5 minutes at the same shear setting (26,000 rpm), with the beaker in thermal contact with melting ice (0° C.). The pH of the aqueous (external) phase was verified and adjusted if necessary to 5.0<pH<7.5.
The formulation was then removed from shear, and stirred overnight at room temperature in a fume hood to allow solvent evaporation. The next morning the suspension was filtered through a 325 mesh screen and stored at room temperature with end over end mixing to avoid settling/clumping. Immediately before use by injection, the formulations were centrifuged utilizing the appropriate volume for 8 min, 4° C. at 2,000 g. The solid particles settled to the bottom, allowing for decanting of the almost clear supernatant, followed by replacement of aqueous solution with an appropriate volume and composition (e.g. PBS), followed by mechanical mixing to resuspend the particles.
Sprague Dawley rats (females, ages 8-16 weeks, n=3) were given a SC injection of 1 mL of the indicated depot formulations. Blood was drawn at various time points and assayed for ShK-186 by ELISA methods.
In a repeat experiment, the time during which blood levels of ShK-186 were monitored was extended.

Substance	duration of release from depot formulation [1]	time of maximum concentration [1]	reduction of induration (inflammatory response) in DTH [2]	reduction in clinical scores of CR-EAE [3]	shape of in vivo release profiles across doses ([4]; 40,000, 20,000 and 10,000 μg/kg (FIG. 6))	duration of sustained in vivo release ([4]; single SC dose (1 mL) 20,000 μg/kg, repeat experiment (FIG. 8))	time blood serum levels are maintained ([4]; single SC injection, 40,000, 20,000 and 10,000 μg/kg, n=3 (FIG. 6))
(Para-phosphono-Phe)-AEEAc-RSCIDTIPKSRCTAFQCKHS(Nle)KYRLSFCRKTCGTC-amide [ShK-192]	over 30 days	~12 days	significant therapeutic effect	significant therapeutic effects	–	–	–
(L-PhosphoTyr)-AEEAc-RSCIDTIPKSRCTAFQCKHSMKYRLSFCRKTCGTC-amide [ShK-186]	–	–	significant therapeutic effect	significant therapeutic effects	geometrically similar, but scaled by the area under the curve to the total dose	at least 56 days	more than 30 days
